# Test results as given in ChEMBL document CHEMBL1649228, “In vivo antibacterial activity of vertilmicin, a new aminoglycoside antibiotic” (2009).
# Legend:
# Staphylococcus aureus [1] = assay: Antimicrobial activity against methicillin-susceptible Staphylococcus aureus ATCC 29213 infected in CD-1 ICR mouse using 1.5 X 10^5 CFU inoculum; format: functional
# Escherichia coli [2] = assay: microbe, parasite or virus in culture; details: ATCC 25922
# Description: Antimicrobial activity against Escherichia coli ATCC 25922 using 1 X 10^5 CFU inoculum by agar dilution method
# Staphylococcus aureus [3] = assay: Antimicrobial activity against methicillin-susceptible Staphylococcus aureus ATCC 29213 using 1.5 X 10^5 CFU inoculum by agar dilution method; format: functional
# Escherichia coli [4] = assay: Antimicrobial activity against Escherichia coli 9612 using 3.7 X 10^4 CFU inoculum by agar dilution method; format: functional
# Enterococcus faecalis [5] = assay: Antimicrobial activity against Enterococcus faecalis ATCC 29212 using 2.8 X 10^7 by agar dilution method; format: functional
# Escherichia coli [6] = assay: microbe, parasite or virus in culture; details: 1515
# Description: Antimicrobial activity against Escherichia coli 1515 using 2.4 X 10^6 CFU inoculum by agar dilution method
# Klebsiella pneumoniae [7] = assay: Antimicrobial activity against Klebsiella pneumoniae 967 infected in CD-1 ICR mouse using 2.6 X 10^5 CFU inoculum; format: functional
# Escherichia coli [8] = assay: Antimicrobial activity against Escherichia coli ATCC 25922 infected in CD-1 ICR mouse using 1 X 10^5 CFU inoculum; format: functional
# Enterococcus faecalis [9] = assay: Antimicrobial activity against Enterococcus faecalis HH22 infected in CD-1 ICR mouse using 1.8 X 10^8 inoculum; format: functional
# Klebsiella pneumoniae [10] = assay: microbe, parasite or virus in culture; details: 935
# Description: Antimicrobial activity against Klebsiella pneumoniae 935 using 3 X 10^5 CFU inoculum by agar dilution method
# Staphylococcus aureus [11] = assay: Antimicrobial activity against methicillin-resistant Staphylococcus aureus 9344 infected in CD-1 ICR mouse using 2.5 X 10^5 CFU inoculum; format: functional
# Staphylococcus aureus [12] = assay: Antimicrobial activity against methicillin-resistant Staphylococcus aureus 9344 using 2.5 X 10^5 CFU inoculum by agar dilution method; format: functional
# Enterococcus faecalis [13] = assay: Antimicrobial activity against Enterococcus faecalis HH22 using 1.8 X 10^8 by agar dilution method; format: functional
# Escherichia coli [14] = assay: Antimicrobial activity against Escherichia coli 9612 infected in CD-1 ICR mouse using 3.7 X 10^4 CFU inoculum; format: functional
# Klebsiella pneumoniae [15] = assay: microbe, parasite or virus in culture; details: 967
# Description: Antimicrobial activity against Klebsiella pneumoniae 967 using 2.6 X 10^5 CFU inoculum by agar dilution method
# Escherichia coli [16] = assay: Antimicrobial activity against Escherichia coli 1515 infected in CD-1 ICR mouse using 2.4 X 10^6 CFU inoculum; format: functional
# Enterococcus faecalis [17] = assay: Antimicrobial activity against Enterococcus faecalis ATCC 29212 infected in CD-1 ICR mouse using 2.8 X 10^7 inoculum; format: functional
# Klebsiella pneumoniae [18] = assay: Antimicrobial activity against Klebsiella pneumoniae 935 infected in CD-1 ICR mouse using 3 X 10^5 CFU inoculum; format: functional
# Staphylococcus aureus [19] = assay: Antimicrobial activity against methicillin-susceptible Staphylococcus aureus 15 infected in CD-1 ICR mouse using 2.5 X 10^5 CFU inoculum; format: functional
# Staphylococcus aureus [20] = assay: Antimicrobial activity against methicillin-susceptible Staphylococcus aureus 15 using 2.5 X 10^5 CFU inoculum by agar dilution method; format: functional
# Escherichia coli [21] = assay: Antimicrobial activity against Escherichia coli 9612 infected in CD-1 ICR mouse assessed as decrease in bacterial load in kidney at 4.32 mg/kg, sc after 72 hrs (reference value: 4.45 +/- 0.37 log10CFU/g); format: functional; details: route subcutaneous
# Escherichia coli [22] = assay: Antimicrobial activity against Escherichia coli 9612 infected in CD-1 ICR mouse assessed as decrease in bacterial load in kidney at 20 mg/kg, sc after 72 hrs (reference value: 4.45 +/- 0.37 log10CFU/g); format: functional; details: route subcutaneous
# Escherichia coli [23] = assay: Antimicrobial activity against Escherichia coli 9612 infected in CD-1 ICR mouse assessed as decrease in bacterial load in kidney at 7.2 mg/kg, sc after 72 hrs (reference value: 4.45 +/- 0.37 log10CFU/g); format: functional; details: route subcutaneous
# Escherichia coli [24] = assay: Antimicrobial activity against Escherichia coli 9612 infected in CD-1 ICR mouse assessed as decrease in bacterial load in kidney at 2.59 mg/kg, sc after 72 hrs (reference value: 4.45 +/- 0.37 log10CFU/g); format: functional; details: route subcutaneous
# Escherichia coli [25] = assay: Antimicrobial activity against Escherichia coli 9612 infected in new Zealand white rabbit with skin burn injury assessed as decrease in bacterial load in burn wound at 0.5 mg/ml after 24 hrs (reference value: 8.57 +/- 0.35 log10CFU/g); format: functional
# Escherichia coli [26] = assay: Antimicrobial activity against Escherichia coli 9612 infected in new Zealand white rabbit with skin burn injury assessed as decrease in bacterial load in burn wound at 2 mg/ml after 24 hrs (reference value: 8.57 +/- 0.35 log10CFU/g); format: functional
# Escherichia coli [27] = assay: Antimicrobial activity against Escherichia coli 9612 infected in CD-1 ICR mouse assessed as decrease in bacterial load in kidney at 12 mg/kg, sc after 72 hrs (reference value: 4.45 +/- 0.37 log10CFU/g); format: functional; details: route subcutaneous
Compound,ED50 (Staphylococcus aureus [1]) [mg/kg],MIC (Escherichia coli [2]) [µg/mL],MIC (Staphylococcus aureus [3]) [µg/mL],MIC (Escherichia coli [4]) [µg/mL],MIC (Enterococcus faecalis [5]) [µg/mL],MIC (Escherichia coli [6]) [µg/mL],ED50 (Klebsiella pneumoniae [7]) [mg/kg],ED50 (Escherichia coli [8]) [mg/kg],ED50 (Enterococcus faecalis [9]) [mg/kg],MIC (Klebsiella pneumoniae [10]) [µg/mL],ED50 (Staphylococcus aureus [11]) [mg/kg],MIC (Staphylococcus aureus [12]) [µg/mL],MIC (Enterococcus faecalis [13]) [µg/mL],ED50 (Escherichia coli [14]) [mg/kg],MIC (Klebsiella pneumoniae [15]) [µg/mL],ED50 (Escherichia coli [16]) [mg/kg],ED50 (Enterococcus faecalis [17]) [mg/kg],ED50 (Klebsiella pneumoniae [18]) [mg/kg],ED50 (Staphylococcus aureus [19]) [mg/kg],MIC (Staphylococcus aureus [20]) [µg/mL],also measured
CCN[C@@H]1C[C@H](N)[C@@H](O[C@H]2OC(CN)=CC[C@H]2N)[C@H](O)[C@H]1O[C@H]1OC[C@](C)(O)[C@H](NC)[C@H]1O [NETILMICIN],0.26,0.5,0.125,0.5,8,0.5,0.17,0.77,6.56,0.5,0.88,0.25,8,0.63,0.5,0.46,3.44,0.33,0.49,0.125,
CN[C@@H]1[C@@H](O)[C@@H](O[C@@H]2[C@@H](O)[C@H](O[C@@H]3OC(C(C)N)=CC[C@@H]3N)[C@@H](N)C[C@H]2N)OC[C@]1(C)O (stereo partly drawn) [VERDAMICIN],0.23,0.5,0.125,4,8,0.5,0.16,1.09,> 100,0.5,1.33,0.25,> 128,2.66,0.25,0.49,5.24,0.29,0.66,0.125,
CCN[C@@H]1C[C@H](N)[C@@H](O[C@@H]2OC(C(C)N)=CC[C@@H]2N)[C@H](O)[C@H]1O[C@H]1OC[C@](C)(O)[C@H](NC)[C@H]1O (stereo partly drawn) [VERTILMICIN],0.25,0.5,0.125,0.5,8,0.5,0.18,0.82,7.11,0.5,0.99,0.25,8,0.67,0.25,0.63,4.35,0.29,0.7,0.125,log10CFU/g (Escherichia coli [21]): 3.22; log10CFU/g (Escherichia coli [22]): 2.36; log10CFU/g (Escherichia coli [23]): 3.07; log10CFU/g (Escherichia coli [24]): 3.32; log10CFU/g (Escherichia coli [25]): 6.33; log10CFU/g (Escherichia coli [26]): 5; log10CFU/g (Escherichia coli [27]): 3.11
GENTAMICIN,0.6,,0.125,8,8,,0.32,1.5,> 100,,2.84,0.25,> 128,7.88,,1.11,17.5,0.68,0.61,0.125,
